{"source": "paper PMC12346198", "about": "(Cancers, 2025)", "key": {"[1]": {"assay": "Single-dose IV and PO pharmacokinetics in mice", "type": "in vivo, male C57BL/6 mice", "description": "The in-life study and quantitative analysis of plasma samples using LC/MS were performed at Charles River Laboratories, Inc. (Wilmington, MA, USA)."}, "[2]": {"test_system": "THLE-2", "assay": "CCK-8 cytotoxicity assay, THLE-2", "type": "cell-based", "conditions": "Homo sapiens, 72 h treatment", "description": "(§1) The cytotoxicity of compounds was determined by the CCK-8 assay (Cell Counting Kit-8, CK04, Dojindo Molecular Technologies, Kumamoto, Japan). Cell lines were plated at 10,000 cells/well in 96-well plates and incubated overnight to allow for adherence (5% CO2, 37 °C). […] Cells were placed back in the incubator for 72 h treatment. CCK-8 reagent was added, and plates were further incubated 1–4 h as directed by the supplier’s instructions. Optical density was measured using a Biotek Synergy H1 plate reader at 450 nm. Primary hepatocytes were plated at 30,000 cells or 50,000 cells/well and maintained according to the technical information bulletin provided by the supplier. Upon treatment, maintenance media were supplemented with 10% FBS and fresh test compound for all subsequent media changes, as directed."}, "[3]": {"test_system": "SNU475 cells", "assay": "Hollow fiber assay (HFA) model of AR-SV HCC", "type": "in vivo", "conditions": "BID PO one week; niclosamide 75, valine–niclosamide 106.1, valine–compound #7 87.3, compound #7 62.9 mg/kg; nude mice", "description": "The hollow fiber procedures were based upon those developed by Hollingshead et al. with technical consultation kindly provided by Drs. Joanna Burdette and Dan Lantvit (University of Illinois Chicago, Chicago, IL, USA). […] In order to utilize a PO dosing approach with the HFA, we extended the traditional HFA timeline to establish angiogenesis, as noted in the literature. […] Hollow fibers (KrosFlo Implant Membranes, M138615, Repligen, Waltham, MA, USA) were filled with 3 × 10^6 SNU475 cells/mL per length and heat-sealed into 2 cm lengths on Day −1. On Day 0, three fibers were implanted into 20-week-old male outbred homozygous athymic nude mice (Foxn1^nu/Foxn1^nu, The Jackson Laboratory, Bar Harbor, ME, USA) subcutaneously parallel to the spine. Following a 14-day waiting period to allow for angiogenesis around the fibers, treatment was initiated. […] On Day 21, mice were euthanized and hollow fibers were explanted. The MTT assay was performed according to the KrosFlo Implant Membrane protocol utilizing Thiazolyl Blue Tetrazolium Bromide (M2128, MilliporeSigma, Burlington, MA, USA)."}, "[4]": {"conditions": "40 mg/kg dose PO; listed as niclosamide; cited from earlier work"}, "[5]": {"test_system": "Primary Male Hepatocytes", "assay": "CCK-8 cytotoxicity assay, primary male hepatocytes", "type": "cell-based", "conditions": "72 h treatment", "description": "as §1"}, "[6]": {"test_system": "HepG2", "assay": "CCK-8 cytotoxicity assay, HepG2", "type": "cell-based, human", "conditions": "Homo sapiens, HepG2, 72 h, 72 h treatment", "description": "as §1"}, "[7]": {"test_system": "SNU475", "assay": "CCK-8 cytotoxicity assay, SNU475", "type": "cell-based, human", "conditions": "72 h treatment", "description": "as §1"}, "[8]": {"test_system": "SNU475 cells", "assay": "Cell viability under invasion assay conditions", "type": "cell-based, human", "conditions": "1 µM", "description": "(§2) Figure S3. […] (A) SNU475 cells were treated with 10 µM of each\n(§3) compound for 24 hours before analysis by AR ELISA. (B ) (Left) Cellular invasion assay was performed on SNU475\n(§4) Mean + SD One way ANOVA with\n(§5) (Right) Cell viability was\n(§6) (1 picture or pasted object on this page, not shown here)"}, "[9]": {"test_system": "SNU475 cells", "assay": "Cellular invasion assay, SNU475", "type": "cell-based, human", "conditions": "1 µM and 10 µM, 48 h of treatment", "description": "The BioCoat Matrigel invasion assay was performed according to the manufacturer’s instructions (BioCoat Matrigel Invasion Chambers, 354480, Corning, Corning, NY, USA). AR-negative clones and parental lines (SNU475 and HCCLM3) were hormone-deprived in phenol red-free RPMI1640 with 5% csFBS (±Pen-Strep) for 24 h. A total of 40,000 cells were suspended in a well insert in 0.5 mL of phenol red-free medium without csFBS over a well of 0.75 mL phenol red-free medium with 5% csFBS as a chemoattractant and incubated for 24 h. Invaded cells were fixed in 4% paraformaldehyde and stained with 0.1% crystal violet in 20% methanol. Cells in 10 different and non-overlapping fields of each membrane were photographed and counted. The Fluorometric QCM™ 24-Well Cell Invasion Assay (ECM 554, MilliporeSigma, Burlington, MA, USA) was executed as per the manufacturer’s protocol using 1.25 × 10^5 cells in 250 μL of serum-free medium and incubated for 24–72 h. Following cell lysis and staining with CyQuant GR Dye, fluorescence was measured in a plate reader using a 480/520 nm filter set.\nas §2, §3, §4, §5, §6"}, "[10]": {"test_system": "SNU423", "assay": "CCK-8 cytotoxicity assay, SNU423", "type": "cell-based", "conditions": "Homo sapiens, SNU-423, 72 h treatment", "description": "as §1"}, "[11]": {"assay": "Thermodynamic solubility in fasted-state simulated intestinal fluid (FaSSIF)", "type": "physicochemical", "conditions": "pH 6.5, LLOQ < 1.56 µM", "description": "The thermodynamic solubility analysis in biological media and the quantitative analysis of samples were performed according to the standard protocol at WuXi AppTec (Shanghai, China)."}, "[12]": {"assay": "Pharmacokinetic modeling of valine pro-drug conversion to parent", "type": "in vivo, mice", "description": "A total of 36 mice with available PK data were included for non-linear mixed-effects analysis using NONMEM (version 7.5.0, ICON Development Solutions, Ellicott City, MD, USA), implementing the first-order conditional estimation with interaction (FOCE-I). R (version 4.2.0, R Foundation for Statistical Computing, Vienna, AUT, http://www.r-project.org) was used for visual diagnostics. […] The analyte (valine conjugate and parent compound) plasma concentration–time data were confirmed to have a biphasic distribution and elimination and were therefore fit separately to a linear two-compartment model with a depot for oral administration. Each model was parametrized in terms of clearance (CL), the volume of distribution of the central compartment (V1), intercompartmental clearance (Q), and the volume of the peripheral compartment (V3). Interindividual variability (IIV) for each parameter was assumed to be log-normally distributed, and residual variability (RUV) was described with a proportional error model. The PK parameter estimates from these independent models (parent compound or valine conjugate) were used as initial estimates for a combined model describing the conversion and disposition of the valine conjugate to the parent drug and associated metabolites. The model estimated the fraction of pro-drug converted to parent drug (Fm), which was used to calculate the first-order rate constant of metabolite formation (Kmet) = Fm × Kel. This rate constant was used to calculate the half-life of the conversion process and the amount of metabolite formed at complete conversion. The rate of metabolite formation was then calculated as the ratio of the amount of metabolite formed to the time required for complete conversion (~5 half-lives), as detailed in Figures S8–S11."}, "[13]": {"conditions": "male, C57BL/6, mouse, in vivo, iv, 2 mg/kg"}, "[14]": {"conditions": "male, C57BL/6, mouse, in vivo, po, 40 mg/kg"}, "[15]": {"conditions": "PO, 40 mg/kg (valine conjugates 40 mg/kg EQV)"}}, "note": "Like-named read-outs stand apart in the source and are kept apart here.", "data": [{"smiles": "O=C(Nc1ccc([N+](=O)[O-])cc1Cl)c1cc(Cl)ccc1O", "note": "[Niclosamide, niclosamide, reference compound]", "values": [{"measurement": "Expected plasma levels for up to 8 h post-dose", "setting": "[1]; C57BL/6, mouse, in vivo", "value": "approximately 0.2 µM"}, {"measurement": "PO: Cl_Fobs, Geo Mean", "setting": "[1]; male, C57BL/6, mouse, in vivo", "value": 0.78, "unit": "L/h"}, {"measurement": "Tmax", "setting": "[1]; [13]", "value": 4.8, "unit": "min"}, {"measurement": "clearance", "setting": "[1]; [13]", "value": 1.33, "unit": "mL/min"}, {"measurement": "Cmax", "setting": "[1]; male, C57BL/6, mouse, in vivo, iv, 2 mg/kg, Cmax, Geo Mean", "value": 6030, "unit": "nM"}, {"measurement": "AUCall of parent following an oral dose of its valine conjugate", "setting": "[1]; [14]", "value": 0.8, "unit": "µM·h"}, {"measurement": "Tmax", "setting": "[1]; [14]", "value": 25.2, "unit": "min"}, {"measurement": "AUC", "setting": "[1]; male, C57BL/6, mouse, in vivo, po, 40 mg/kg, AUCall following an oral dose of the unconjugated compound", "value": 3.25, "unit": "µM·h"}, {"measurement": "Cmax", "setting": "[1]; male, C57BL/6, mouse, in vivo, po, 40 mg/kg, Cmax following an oral dose of the unconjugated compound", "value": 1650, "unit": "nM"}, {"measurement": "Cmax", "setting": "[1]; male, C57BL/6, mouse, in vivo, po, 40 mg/kg, Cmax, Geo Mean", "value": 1650, "unit": "nM"}, {"measurement": "IC50", "setting": "[2]", "value": 0.37, "unit": "µM"}, {"measurement": "Cell viability within hollow fibers (MTT assay)", "setting": "[3]", "value": "no differences in cell viability"}, {"measurement": "Plasma niclosamide concentration 4 h after oral administration", "setting": "[4]", "value": "roughly 0.10 µM"}, {"measurement": "IC50", "setting": "[5]", "value": 7.16, "unit": "µM"}, {"measurement": "IC50", "setting": "[5]; Hepatocyte, 72 h", "value": 7.2, "unit": "µM"}, {"measurement": "IC50", "setting": "[6]", "value": 0.6, "unit": "µM"}, {"measurement": "IC50", "setting": "[7]", "value": 1.33, "unit": "µM"}, {"measurement": "IC50", "setting": "[7]; Homo sapiens, SNU-475, 72 h", "value": 1.3, "unit": "µM"}, {"measurement": "Cell viability at 48 h", "setting": "[8]", "value": "not impacted"}, {"measurement": "SNU475 invasion", "setting": "[9]", "value": "decreased invasion"}, {"measurement": "IC50", "setting": "[10]", "value": 0.25, "unit": "µM"}]}, {"smiles": "CC(C)[C@H](N)C(=O)Oc1ccc(Cl)cc1C(=O)Nc1ccc(C(F)(F)F)cc1", "note": "[valine–compound #11]", "values": [{"measurement": "HL_Lambda_z, Geo Mean", "setting": "[1]; IV, 2 mg/kg (valine conjugates 2 mg/kg EQV)", "value": 1.94, "unit": "h"}, {"measurement": "IV: Clobs, Geo Mean", "setting": "[1]; IV, 2 mg/kg (valine conjugates 2 mg/kg EQV), non-compartmental analysis", "value": 0.004, "unit": "L/h"}, {"measurement": "HL_Lambda_z, Geo Mean", "setting": "[1]; [15]", "value": 5.77, "unit": "h"}, {"measurement": "PO: Cl_Fobs, Geo Mean", "setting": "[1]; [15]", "value": 0.59, "unit": "L/h"}, {"measurement": "AUC", "setting": "[1]; male, C57BL/6, mouse, plasma, iv, 2 mg/kg, IV, 2 mg/kg (valine conjugates 2 mg/kg EQV), analyte = dosed compound, non-compartmental analysis, read-out: AUCall, Geo Mean", "value": 36.1, "unit": "µM·h"}, {"measurement": "Cmax", "setting": "[1]; male, C57BL/6, mouse, plasma, iv, 2 mg/kg, IV, 2 mg/kg (valine conjugates 2 mg/kg EQV), read-out: Cmax, Geo Mean", "value": 20200, "unit": "nM"}, {"measurement": "AUC", "setting": "[1]; male, C57BL/6, mouse, plasma, po, 40 mg/kg, PO, 40 mg/kg (valine conjugates 40 mg/kg EQV), analyte = dosed compound, non-compartmental analysis, read-out: AUCall, Geo Mean", "value": 4.17, "unit": "µM·h"}, {"measurement": "Cmax", "setting": "[1]; male, C57BL/6, mouse, plasma, po, 40 mg/kg, PO, 40 mg/kg (valine conjugates 40 mg/kg EQV), read-out: Cmax, Geo Mean", "value": 990, "unit": "nM"}, {"measurement": "AUC", "setting": "[1]; male, C57BL/6, mouse, plasma, po, 40 mg/kg, single PO dose, 40 mg/kg or molar equivalent, analyte = dosed compound, read-out: AUCall following an oral dose", "value": 4.17, "unit": "µM·h"}, {"measurement": "Tmax", "setting": "[1]; male, C57BL/6, mouse, plasma, IV, 2 mg/kg (valine conjugates 2 mg/kg EQV), read-out: Tmax, Geo Mean", "value": 23.4, "unit": "min"}, {"measurement": "Tmax", "setting": "[1]; male, C57BL/6, mouse, plasma, PO, 40 mg/kg (valine conjugates 40 mg/kg EQV), read-out: Tmax, Geo Mean", "value": 60, "unit": "min"}, {"measurement": "clearance", "setting": "[1]; male, C57BL/6, mouse, plasma, single IV dose, 2 mg/kg or molar equivalent, read-out: Systemic clearance following an IV dose (converted)", "value": 0.0667, "unit": "mL/min"}, {"measurement": "solubility thermodynamic", "setting": "[11]", "value": "< 1.56", "unit": "µM"}, {"measurement": "k el", "setting": "[12]; C57BL/6, mouse, plasma, model estimate, read-out: Kel, elimination rate constant of valine conjugate (converted)", "value": 0.00853, "unit": "s⁻¹"}, {"measurement": "Kmet, rate constant of conversion to parent compound", "setting": "[12]; Kmet = Fm × Kel", "value": 11.9, "unit": "h⁻¹"}, {"measurement": "Fraction of pro-drug converted to parent (Fm)", "setting": "[12]; two-compartment model estimate", "value": 39, "unit": "%"}]}]}
